For experiment [1], the target named is T1, MspA-PBA (boronic acid appended hetero-octameric MspA) (Mycolicibacterium smegmatis, UniProt A0QR29, D117C/D118N/D120N/D145R/D161R/E166K).
T1 construct: H6 (hexa-histidine) (C); 3-(maleimide) phenylboronic acid (MPBA) adduct on the thiol of Cys90; made in house; host or cells: E. coli BL21 (DE3) pLysS, co-expression from pETDuet-1
Briefly: Single channel recording of alditol binding to MspA-PBA nanopore (standards and zero-sugar drinks). Also on record: species or system Mycobacterium smegmatis. The conditions noted are these: N=3; for ratio (mean current percentage blockage) / std (standard deviation of the blocking level): alditol 4 mM (glycerol 8 mM) in cis. The procedure: FIG. 88: Definition of event parameters. (a) A representative electrophysiology trace containing nanopore events. Xylitol was treated as the model analyte. I0 is the open pore current and Ib is the residual current caused by alditol blockade. ratio is derived from (I0−Ib)/I0, which is defined as the percentage blockage. τoff represents the dwell time of an event. τon represents the inter-event interval. std is the standard deviation value of the blockage level. (b-c) The histogram plot of ratio (b) and std (c) acquired from a continually recorded trace. The histograms were Gaussian fitted and the peaks of the fitting results respectively represent the mean value of ratio and the mean std. (d-e) The histogram plots of τoff (d) and τon (e) acquired from a continually recorded trace. The histogram plots were respectively fit to a single exponential curve, according to the equation y=a*exp (−x/τ), from which the mean event dwell time (τoff) (d) and the mean inter-event interval (τon) (e) were respectively derived. If not otherwise stated, all results in this manuscript were described by event parameters defined above.
All subsequent nanopore measurements were carried out with a 1.5 M KCl buffer (1.5 M KCl, 10 mM 3-(N-Morpholino) propanesulfonic acid (MOPS), pH 7.0) and a +100 m V continually applied potential (Method 1 in Example 3). 13 types of alditols, which were derived from the reduction of the carbonyl group of C3-C6 monoaldoses were treated as model polyols (FIGS. 77b and 83). The PBA of MspA-PBA can complex with a polyol, forming a cyclic ester at the pore constriction and resulting in the corresponding nanopore event being reported. All alditols were added to the cis side of the pore and the final concentration of alditols was set at 4 mM with the exception of glycerol, which was set at 8 mM instead. […] In addition, single molecule sensing of glycerol and D-Sorbitol by MspA-PBA are as shown in FIGS. 104 and 105, respectively.
To describe the sensing events quantitatively, event parameters such as the open-pore current (I0), the current blockade (Ib), the percentage blockage (ratio), the event dwell time (τoff), the inter-event intervals (τon) and the standard deviation value of the blockage level (std) were defined as described in FIG. 88. The percentage blockage, also referred to for simplicity as ratio, is defined as (I0−Ib)/I0.
Quantitatively, the reciprocal of the mean inter-event interval (1/τon, N=3) is linearly correlated with the alditol concentration, consistent with a bimolecular model. The mean event dwell time τoff (N=3) however is independent of the alditol concentration, and this is consistent with a unimolecular dissociation mechanism (FIGS. 89e-92e, Table 18). […] The binding constant for borate cyclic ester formation for alditols increases as the number of hydroxyl groups in the alditol increases (FIG. 77c and Table 18), consistent with conclusions drawn previously from the corresponding NMR measurements.^52 Nanopore measurements were also performed with different applied voltages. […] This is expected because all alditols tested in this paper are electrically neutral and the formation of a borate ester is independent of the local electric field.
All nanopore measurements were performed as described previously.^1,2 Briefly, the measurement device has two custom chambers separated by a thick Teflon film containing a drilled (˜100 μm) aperture. Before the measurement, the aperture was first treated with 0.5% (v/v) hexadecane in pentane and set for pentane evaporation. Electrolyte buffer (500 μL) was added to the electrically grounded chamber (cis chamber) and the opposing chamber (trans chamber). All nanopore measurements in this paper were performed with a 1.5 M KCl buffer (1.5 M KCl, 10 mM MOPS, pH 7.0). Two custom-made Ag/AgCl electrodes were placed in both chambers in contact with the buffers and the patch-clamp amplifier to form a closed circuit. […]

The target of experiment [2] is T2, Octameric M2 MspA (Mycolicibacterium smegmatis, UniProt A0QR29, D117N/D118N/D120N/D145R/D161R/E166K).
T2 construct: made in house; host or cells: E. coli BL21 (DE3)
T2 sequence (A0QR29 28-211 D117N/D118N/D120N/D145R/D161R/E166K): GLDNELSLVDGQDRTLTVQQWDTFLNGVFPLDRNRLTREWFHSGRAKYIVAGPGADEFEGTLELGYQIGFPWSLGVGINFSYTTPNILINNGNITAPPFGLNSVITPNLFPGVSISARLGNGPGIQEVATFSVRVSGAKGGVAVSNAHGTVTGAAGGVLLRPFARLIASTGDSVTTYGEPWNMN
In words: Alditol sensing using M2 MspA nanopore (control without PBA). In kind it is binding, Mycobacterium smegmatis. The conditions noted are these: alditol 4 mM in cis, +100 mV. The procedure:
FIG. 87: Alditol sensing using M2 MspA nanopore. Glycerol, erythritol, xylitol and sorbitol were used as the representative alditols with different number of hydroxyl groups. All measurements were carried out as described in Methods 1 in Example 3. Octameric M2 MspA was applied as the nanopore sensor. A transmembrane potential of +100 m V was continually applied. Each alditol was added to cis with a final concentration of 4 mM.
The octameric M2 MspA was used as a control in FIG. 87. It was expressed with E. coli BL21 (DE3) and purified by nickel affinity chromatography as reported previously.^1

Where [3] appears, read: voltage series: +60 mV, glycerol 12 mM, other alditols 8 mM.
[4] abbreviates: voltage series: +80 mV, glycerol 12 mM, other alditols 8 mM.
Where [5] appears, read: voltage series: +100 mV, glycerol 12 mM, other alditols 8 mM.
[6] abbreviates: voltage series: +120 mV, glycerol 12 mM, other alditols 8 mM.

T1 sequence (A0QR29 other isoform, or with tags, fused parts or gaps D117N/D118N/D120N/D145R/D161R/E166K): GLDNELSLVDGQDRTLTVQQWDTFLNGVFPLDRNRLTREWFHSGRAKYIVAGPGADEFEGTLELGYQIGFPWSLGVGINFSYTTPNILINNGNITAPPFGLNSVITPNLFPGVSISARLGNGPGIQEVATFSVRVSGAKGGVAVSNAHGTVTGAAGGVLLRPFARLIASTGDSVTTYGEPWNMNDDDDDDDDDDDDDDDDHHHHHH
T1 sequence (A0QR29 other isoform, or with tags, fused parts or gaps D117C/D118N/D120N/D145R/D161R/E166K): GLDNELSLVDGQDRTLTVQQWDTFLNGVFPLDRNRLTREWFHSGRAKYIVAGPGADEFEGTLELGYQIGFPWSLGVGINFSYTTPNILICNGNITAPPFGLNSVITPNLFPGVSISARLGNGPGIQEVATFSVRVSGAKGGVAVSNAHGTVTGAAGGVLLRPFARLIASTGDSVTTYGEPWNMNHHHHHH

As for `OC[C@@H](O)[C@@H](O)CO` [erythritol], the “ratio (mean current percentage blockage)” value in experiment [1] (+100 mV) is given as 22.00±0.17%. In addition, the “std (standard deviation of the blocking level)” value in experiment [1] (+100 mV) was determined as 3.24±0.18 pA. Moreover, the 1/τon in experiment [1] (alditol 2 mM in cis, +100 mV) amounted to 0.42 ± 0.05 s⁻¹; in experiment [1] (alditol 4 mM in cis, +100 mV) it was 0.80 ± 0.05 s⁻¹; in experiment [1] (alditol 6 mM in cis, +100 mV), 1.16 ± 0.03 s⁻¹; in experiment [1] (alditol 8 mM in cis, +100 mV), 1.59 ± 0.09 s⁻¹; in experiment [1] (setting [3]) it was 1.62 ± 0.10 s⁻¹; in experiment [1] (setting [4]), 1.65 ± 0.11 s⁻¹. In addition, the 1/τon worked out at 1.64 ± 0.10 s⁻¹ in experiment [1] (setting [5]) and 1.65 ± 0.06 s⁻¹ in experiment [1] (setting [6]). For the same molecule, the τoff in experiment [1] (alditol 2 mM in cis, +100 mV) is reported as 42.4 ± 0.5 ms; in experiment [1] (alditol 4 mM in cis, +100 mV), 43.4 ± 3.2 ms; in experiment [1] (alditol 6 mM in cis, +100 mV), 42.3 ± 2.3 ms; in experiment [1] (alditol 8 mM in cis, +100 mV), 44.2 ± 1.5 ms. Also, the “binding events with M2 MspA” value in experiment [2] is on record as “No binding events were observed”.

`OCC(O)CO` [glycerol]: in experiment [1] (+100 mV), the “ratio (mean current percentage blockage)” value was determined as 17.07 ± 0.15%. Moreover, the “std (standard deviation of the blocking level)” value in experiment [1] (+100 mV) is 2.57 ± 0.07 pA. Also, the 1/τon in experiment [1] (alditol 6 mM in cis, +100 mV) is 1.3 ± 0.2 s⁻¹; in experiment [1] (alditol 8 mM in cis, +100 mV), 1.7 ± 0.2 s⁻¹; in experiment [1] (alditol 10 mM in cis, +100 mV), 2.1 ± 0.3 s⁻¹; in experiment [1] (alditol 12 mM in cis, +100 mV) it was 2.5 ± 0.3 s⁻¹; in experiment [1] (setting [3]) it was 2.2 ± 0.2 s⁻¹; in experiment [1] (setting [4]), 2.35 ± 0.14 s⁻¹. The results for the 1/τon in experiment [1] (setting [5]) and in experiment [1] (setting [6]) were 2.4 ± 0.3 s⁻¹ and 2.4 ± 0.2 s⁻¹, respectively. Also, the τoff stood at 10.5 ± 0.8 ms in experiment [1] (alditol 6 mM in cis, +100 mV); 10.3 ± 0.4 ms in experiment [1] (alditol 8 mM in cis, +100 mV); 10.5 ± 0.7 ms in experiment [1] (alditol 10 mM in cis, +100 mV); 10.4 ± 0.5 ms in experiment [1] (alditol 12 mM in cis, +100 mV). For the same molecule, in experiment [2], the “binding events with M2 MspA” value is “No binding events were observed”.

Regarding `OC[C@@H](O)[C@H](O)[C@@H](O)CO` [xylitol], the “ratio (mean current percentage blockage)” value in experiment [1] (+100 mV) stood at 25.70±0.10%. The “std (standard deviation of the blocking level)” value in experiment [1] (+100 mV) came out at 6.28±0.07 pA. The 1/τon in experiment [1] (alditol 2 mM in cis, +100 mV) amounted to 0.42 ± 0.02 s⁻¹; in experiment [1] (alditol 4 mM in cis, +100 mV), 0.84 ± 0.04 s⁻¹; in experiment [1] (alditol 6 mM in cis, +100 mV), 1.3 ± 0.1 s⁻¹; in experiment [1] (alditol 8 mM in cis, +100 mV), 1.71 ± 0.03 s⁻¹; in experiment [1] (setting [3]), 1.66 ± 0.02 s⁻¹; in experiment [1] (setting [4]), 1.69 ± 0.02 s⁻¹. Further, the 1/τon in experiment [1] (setting [5]) worked out at 1.70 ± 0.03 s⁻¹; in experiment [1] (setting [6]) it was 1.68 ± 0.04 s⁻¹. For the same molecule, the τoff in experiment [1] (alditol 2 mM in cis, +100 mV) turned out to be 515.3 ± 43.5 ms; in experiment [1] (alditol 4 mM in cis, +100 mV), 496.3 ± 18.6 ms; in experiment [1] (alditol 6 mM in cis, +100 mV) it was 461.1 ± 13.4 ms; in experiment [1] (alditol 8 mM in cis, +100 mV) it was 474.6 ± 21.2 ms. In addition, the “binding events with M2 MspA” value in experiment [2] is “No binding events were observed”.

Values taken from patent US20240418701A1, “SINGLE MOLECULE IDEN[…] A REACTIVE HETERO-NANOPORE” (priority 2021, published 2024).
